According to BindingDB's records for doi:10.1021/bi020016x (Weizmann Institute of Science, 2002):

Experiments:
Acetylcholinesterase [1] = molecular target: Acetylcholinesterase (Tetronarce californica, UniProt P04058); test: Enzyme Inhibition Assay; details: pH 7.5; 25 °C
Experimental: (§1) The cholinesterase assays were performed using colorimetric method reported by Ellman. Enzyme activity was determined by measuring the absorbance at 412 nm for 2 min, relative to the drug-free control. Triplicate measurements were carried out at a total of 8 drug concentrations. The IC50 values were determined from a plot of percentage of inhibition vs -log [drug].

Acetylcholinesterase [2] = molecular target: Acetylcholinesterase (Homo sapiens, UniProt P22303); test: Enzyme Inhibition Assay; details: pH 7.5; 25 °C
Experimental: as §1

Chain of Acetylcholinesterase (Tetronarce californica, UniProt P04058) (P04058 whole entry): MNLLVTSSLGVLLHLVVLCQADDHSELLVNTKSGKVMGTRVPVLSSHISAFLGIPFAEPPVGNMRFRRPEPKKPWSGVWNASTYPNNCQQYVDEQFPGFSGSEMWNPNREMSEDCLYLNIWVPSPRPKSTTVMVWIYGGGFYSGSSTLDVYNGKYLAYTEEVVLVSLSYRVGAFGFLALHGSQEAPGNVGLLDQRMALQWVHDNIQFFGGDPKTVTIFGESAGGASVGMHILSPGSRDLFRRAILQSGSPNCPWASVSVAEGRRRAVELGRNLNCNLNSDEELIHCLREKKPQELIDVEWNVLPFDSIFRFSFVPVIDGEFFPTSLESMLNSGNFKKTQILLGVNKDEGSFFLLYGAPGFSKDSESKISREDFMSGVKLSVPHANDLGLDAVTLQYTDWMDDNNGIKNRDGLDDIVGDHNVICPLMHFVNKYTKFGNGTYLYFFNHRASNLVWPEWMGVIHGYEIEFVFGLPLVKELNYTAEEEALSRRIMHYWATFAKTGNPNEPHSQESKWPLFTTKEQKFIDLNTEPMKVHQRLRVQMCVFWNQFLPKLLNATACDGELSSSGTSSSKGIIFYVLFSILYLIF
Chain of Acetylcholinesterase (Homo sapiens, UniProt P22303) (P22303 whole entry): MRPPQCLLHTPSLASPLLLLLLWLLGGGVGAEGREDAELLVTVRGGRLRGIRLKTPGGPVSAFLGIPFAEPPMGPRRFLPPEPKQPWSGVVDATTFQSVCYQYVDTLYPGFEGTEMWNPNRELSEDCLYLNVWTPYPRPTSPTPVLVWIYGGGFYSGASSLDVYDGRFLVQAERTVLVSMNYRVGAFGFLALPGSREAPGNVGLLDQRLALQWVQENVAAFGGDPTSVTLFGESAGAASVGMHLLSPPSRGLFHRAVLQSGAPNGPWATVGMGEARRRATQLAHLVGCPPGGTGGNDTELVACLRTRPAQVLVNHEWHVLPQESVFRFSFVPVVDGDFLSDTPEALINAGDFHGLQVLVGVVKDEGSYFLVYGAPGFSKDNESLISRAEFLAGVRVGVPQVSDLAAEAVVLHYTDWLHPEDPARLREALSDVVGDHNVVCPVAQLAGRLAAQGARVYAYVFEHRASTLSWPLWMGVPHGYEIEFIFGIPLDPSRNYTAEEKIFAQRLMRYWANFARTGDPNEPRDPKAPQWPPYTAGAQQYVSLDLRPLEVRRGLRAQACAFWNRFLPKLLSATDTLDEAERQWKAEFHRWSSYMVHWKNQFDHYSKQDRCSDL

C[C@@H](c1cccc(O)c1)N(C)C [3-[1-(dimethylamino)ethyl]phenol]
Ki (Acetylcholinesterase [1]): 0.7 µM
Ki (Acetylcholinesterase [2]): 33 µM
